Three compounds from patent US8735178B2, “Withanolides, probes and binding targets and methods of use thereof” (University of Kentucky Research Foundation, priority 2006, dated 2014) can be followed below.

SMILES strings stand for the structures.

One experiment concerns the target soluble hamster vimentin (Mesocricetus auratus, UniProt P02544). Briefly: In vitro ligand binding assay (WFA-B labelling, streptavidin-HRP blot). Particulars: competitor 1 hour, then 0.3 or 1 μM WFA-B 1 hour. The source says: The proteins were fractionated by SDS-PAGE, blotted and biotinylated adduct was detected by streptaviding-HRP with chemiluminescence.
The target of experiment [1] is T1, tetrameric soluble hamster vimentin (Mesocricetus auratus, UniProt P02544).
T1 construct: purchased Vimentin Filament Biochemistry Kit, Denver, Colo; Cytoskeleton is named
T1 sequence (P02544 2-465 limits assumed): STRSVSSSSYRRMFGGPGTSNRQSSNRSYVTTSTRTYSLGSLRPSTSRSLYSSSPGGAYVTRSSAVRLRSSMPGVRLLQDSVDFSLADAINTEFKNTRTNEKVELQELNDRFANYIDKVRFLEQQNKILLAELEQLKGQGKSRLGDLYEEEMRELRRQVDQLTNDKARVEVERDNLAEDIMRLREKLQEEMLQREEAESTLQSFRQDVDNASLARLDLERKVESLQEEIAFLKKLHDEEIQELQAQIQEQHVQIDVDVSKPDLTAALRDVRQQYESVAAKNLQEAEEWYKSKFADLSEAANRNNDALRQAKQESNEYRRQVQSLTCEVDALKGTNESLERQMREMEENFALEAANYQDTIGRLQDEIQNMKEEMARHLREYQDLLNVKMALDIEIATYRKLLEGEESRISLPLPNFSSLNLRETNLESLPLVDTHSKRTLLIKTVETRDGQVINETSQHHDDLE
Briefly: In vitro vimentin filament polymerization (transmission electron microscopy). Type of experiment: biochemical. Particulars: 25 μM, 170 mM NaCl, 1 hour at 37° C. The protocol: FIG. 3a depicts tetrameric soluble hamster vimentin polymerized in the presence of 170 mM NaCl by incubation at 37° C. for 1 hour. The protein was fixed with 0.5% glutaraldehyde, stained with uranyl acetate and observed by transmission electron microscopy.
Tetrameric hamster vimentin was subjected to in vitro filament formation assays using vendor-supplied reagents and instructions (Vimentin Filament Biochemistry Kit, Denver, Colo.). Vimentin (0.5 mg/ml) was mixed with WFA (5 μM or 25 μM), DMSO or 12D-WS (25 μM) in filament polymerization buffer (170 mM NaCl final concentration) and incubated for 1 hour at 37° C. Protein was immediately fixed in 0.5% glutarldehyde and stained with uranyl acetate and applied to copper grids for EM staining (University of Kentucky Core Microscopy and Imaging Facilities). Over 100 grids for each treatment were viewed at 80 kV on a FEI Biotwin 12 transmission electron microscope and 25 representative images were collected. The experiment was repeated in entirety.

The next experiment has as its target bovine 20S proteasome (Bos taurus, UniProt Q32KL2). The experiment is described as follows: 20S proteasome enzyme kinetic assay (chymotrypsin-like activity, Suc-LLVY-AMC). Type of experiment: biochemical. As for the experimental part:
The chymotrypsin-like activity was assayed using the fluorogenic peptide substrates Suc-Leu-Leu-Val-Tyr-AMC (Sigma-Aldrich). […] Fluorescence was quantified as arbitrary units and progression curves were plotted for each reaction as a function of time. kobserved/[I] values were obtained using PRISM program by nonlinear least squares fit of the data to the following equation: fluorescence=vst+[(v0−vs)/kobserved][1−exp(−kobserved t)], where v0 and vs are the initial and final velocities, respectively, and kobserved is the reaction rate constant. […] Reactions were performed using inhibitor concentrations that were <100-fold of those of the proteasome assayed.

The subject of experiment [2] is embryonic fibroblast cell lines MFT-6 (Vim+/+) and MFT-16 (Vim−/−). The experiment is described as follows: Apoptosis by flow cytometry (annexin V-FITC / propidium iodide). Particulars: 5 μM, 24 hours. Type of experiment: cell-based, mouse. As for the experimental part:
Referring to FIG. 4c, embryonic fibroblast cell lines derived from vimentin-deficient mice and wild-type littermates were treated with vehicle or 5 μM WFA for 24 hours. Cells were harvested and stained with annexin V-FITC and propidium iodide and extent of apoptosis assessed by flow cytometry. The fold-apoptotis for drug over vehicle-treated samples for each cell line was plotted (n=2 experiments).
To assess the apoptosis activity of WFA, embryonic fibroblast vimentin-deficient cell lines (Vim^−/−; MFT-16) and wild-type (Vim^+/+; MFT-6) cells were treated with 5 μM WFA or an equivalent amount of vehicle (DMSO) for 24 hours at 37° C.-5% CO2 conditions in complete medium. Apoptotic cells were measured by using the VYBRANT™ Apoptosis Assay Kit (Molecular Probes) according to the manufacturer's instructions. Flow cytometric analysis was conducted at the University of Kentucky Core Flow Cytometry Center.
On the technique in general: Flow cytometry measures light scatter and fluorescence of single cells or particles in a stream.

Experiment [3] deals with corneal neovascularization. Briefly: Injury-induced corneal neovascularization assay in mice. Type of experiment: in vivo, mouse. Particulars: 2 mg/kg i.p. daily for 10 days. From the text:
Since WFA exerts potent angiogenesis inhibitory activity in vivo, drug activity on de novo capillary growth in vimentin deficiency was investigated.
Vimentin homozygous-deficient mice (vim^−/−) and vimentin-heterozygous-deficient mice (vim^+/−) in the 129/Svev background were obtained from David Markovitz (University of Michigan Medical Center) and breeding colonies established at the University of Kentucky. All mice were housed in specific pathogen-free cages in designated lab animal housing facilities. Age-matched littermates were genotyped by polymerase chain reaction, as described, and vim^−/− and vim^+/+ mice were employed for corneal vascularization experiments. In brief, mice between 4-6 weeks of age were anesthetized by intraperiteoneal injection (i.p.) of ketamine and xylazine. Corneas were topically anesthetized by application of proparacain drop and 1 microliter drop of dilute 0.1 M sodium hydroxide was applied for 1 minute. […] Upon recovery from anesthesia, mice were replaced in cages and monitored by trained personnel for resumption of normal activity. […] Fluorescence was quantified by importing images in NIH ImageJ, as taught by Ambati, B. K. et al., Sustained inhibition of corneal neovascularization by genetic ablation of CCR5, Invest. […]

The test system of another experiment is vimentin in HUVECs. Briefly: Western blot of soluble vimentin in WFA-treated HUVECs. Type of experiment: cell-based, human. The protocol: (§1) BAECs treated with DMSO (FIGS. 3e, 3g, 3i) or 3 μM WFA (FIGS. 3f, 3h, 3j) for 18 hours were stained for vimentin using a monoclonal anti-vimentin antibody (green) and co-stained with phalloidin-rhodamine (red). The vimentin (FIGS. 3e, 3f) and phalloidin-stained images (FIGS. 3g, 3h), in fluorescence overlap, reveal the presence of numerous cytoplasmic particulate granules that co-stain for vimentin and disrupted F-actin in WFA-treated cells compared to controls (FIGS. 3i, 3j). […] FIG. 3l depicts higher concentrations and longer periods of exposure to WFA (4 hours) cause reduction in levels of the 56 kDa protein (asterisk) and increased abundance of cleavage products of vimentin (arrows).
As it became apparent that vimentin targeting by WFA may initiate signaling events leading to cellular apoptosis, the effect of WFA on soluble tetrameric vimentin was investigated. Using western blot analysis of soluble proteins from HUVECs treated with WFA, dose-dependent (above 2 μM) increases in vimentin cleavage products became detectable by 2 hours after drug treatment (FIGS. 3k and 3l).
After treatments, cells were washed in PBS and extracts having equal amounts of proteins were subjected to SDS-PAGE on 4-20% Tris-glycine gels (BioEpress) and transferred to Immun-Blot PVDF membrane (Bio-Rad) using standard techniques. […]
(In general: Immunoblotting shows a protein as a band on a membrane.)

For experiment [4], the system named is MCF-7 cells transfected with human vimentin cDNA. Briefly: Polyubiquitinated proteins in vimentin-transfected MCF-7 cells (anti-ubiquitin blot). Type of experiment: cell-based. Particulars: 2 μM, not in vector controls. The protocol:
Employing the widely used MCF-7 vimentin-deficient model of Bar, H. et al., Forced expression of desmin and desmin mutants in cultured cells: impact of myopathic missense mutations in the central coiled-coil domain on network formation, Exp. Cell. […] MCF-7 cells that lack endogenous IF proteins were transfected with human vimentin cDNA or a vector control and after 24 hours cells were treated with either vehicle or 2 μM WFA for 1 hour. Cell lysates were prepared and equal amounts of protein subjected to SDS-PAGE and protein blots probed with anti-ubiquitin antibody. Blots were re-probed with anti-GAPDH antibody.
MCF-7 cells were transfected with a pCMV6-XL5 vector containing the human vimentin cDNA under CMV promoter according to vendor instructions (Origene). Control samples were transfected with an empty vector (PCMV6-XL4). Transfected cells were allowed to recover for 12 hours and subsequently treated with 2 μM WFA for 18 hours. Equal amounts of protein lysates were then subjected to western blotting and probed with mouse monoclonal antibody against ubiquitin proteins.

The next experiment has as its system BAECs. Briefly: Immunostaining of vimentin and actin in BAECs. Type of experiment: cell-based, bovine. Particulars: 3 μM, 18 hours. As for the experimental part: as §1
To further corroborate that vimentin aggregation by WFA treatment is associated with perturbation of the cytoskeleton structure, the drug effects in BAECs were investigated by immunostaining. […] Importantly, these vimentin particulates strongly co-stain for actin (compare FIG. 3h with FIG. 3j), exemplifying the role of the WFA-binding domain in control of cytoskeletal structure through the actin-binding activity of vimentin 2B domain.
After treatments, BAECs were washed with PBS and fixed with 4% paraformaldehyde for 5 minutes. Cells were then permeabilized with 0.1% Triton-X in PBS for 20 minutes at 4° C. and blocked for 30 minutes in 3% BSA to prevent nonspecific binding. […]

Experiment [5] addresses purified hamster vimentin (Mesocricetus auratus, UniProt P02544). Briefly: LC-MS/MS mapping of the residue covalently modified by WFA. Type of experiment: binding. Particulars: tryptic digestion, molecular mass shift of 470. The protocol: Next, to identify the amino acid residue(s) of vimentin covalently modified by WFA, purified hamster vimentin was incubated with WFA and the protein-ligand complexes subjected to tryptic digestion and LC-MS/MS analysis. […] A three-dimensional model of the WFA-vimentin complex was developed using x-ray crystal structures of vimentin and WFA. […] In this simulated model, the C3 and C6 carbons of WFA lie in close proximity to the cysteine residue in the vimentin A-helix (FIG. 2b), permitting a nucleophilic attack by this thiol group on the electrophilic carbon centers (FIG. 2c). Remarkably, the amino acid residues of vimentin (Gln324, Cys328 and Asp 331) that make contact with WFA (FIG. 2c) are identical from fish to mammals, as shown in the table below.

Experiment [6] deals with T2, 56 kDa protein (vimentin) in HUVECs (Homo sapiens, UniProt P08670).
T2 construct: host or cells: HUVECs
T2 sequence (P08670 whole entry): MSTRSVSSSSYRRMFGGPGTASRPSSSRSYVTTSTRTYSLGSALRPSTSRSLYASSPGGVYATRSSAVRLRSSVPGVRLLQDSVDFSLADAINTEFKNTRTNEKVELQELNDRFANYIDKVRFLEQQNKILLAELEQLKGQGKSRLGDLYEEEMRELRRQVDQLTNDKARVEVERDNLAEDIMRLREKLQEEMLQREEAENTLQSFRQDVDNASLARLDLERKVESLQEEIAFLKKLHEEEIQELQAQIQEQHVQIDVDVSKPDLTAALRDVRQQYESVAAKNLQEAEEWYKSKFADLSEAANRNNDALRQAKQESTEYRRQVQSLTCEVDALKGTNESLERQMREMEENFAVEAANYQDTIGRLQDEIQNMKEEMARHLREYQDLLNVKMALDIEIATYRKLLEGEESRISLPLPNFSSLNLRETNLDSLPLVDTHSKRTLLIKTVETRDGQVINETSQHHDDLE
Briefly: WFA-B labelling of proteins in HUVECs (streptavidin-HRP blot). Particulars: WFA-B 2 hours, WFA-competitive. Type of experiment: binding. As for the experimental part:
LC-MS/MS characterization of this protein identified the 56 kDa protein as vimentin (27% protein coverage), an IF protein that is abundant in mesenchymal cells. To further support that vimentin is bound by WFA-B in vivo, HUVECs were treated with WFA-B in the presence and absence of unconjugated WFA, and total cellular lysates were gel-fractionated and protein blots probed with streptavidin-HRP. […] This experiment was conducted using cells preincubated with DMSO or WFA for 30 minutes and subsequently with WFA-B for 2 hours. Soluble proteins extracted in 1% Triton X-100 were fractionated by SDS-PAGE and blotted. This blot, as well as those of FIGS. 1d and 1e, were developed with Streptavidin-HRP. Biotin label is incorporated in this 56 kDa protein in a WFA-competitive manner.
As shown in the blot of FIG. 1d, WFA-B binds vimentin in HUVECs. The blot of FIG. 1d was produced using cell cultures preincubated with DMSO (Veh) or with 5 μM WFA or 1 μM (WFA*) for 30 minutes and subsequently with 5 μM WFA-B for 2 hours.

Chain of soluble hamster vimentin (P02544 whole entry): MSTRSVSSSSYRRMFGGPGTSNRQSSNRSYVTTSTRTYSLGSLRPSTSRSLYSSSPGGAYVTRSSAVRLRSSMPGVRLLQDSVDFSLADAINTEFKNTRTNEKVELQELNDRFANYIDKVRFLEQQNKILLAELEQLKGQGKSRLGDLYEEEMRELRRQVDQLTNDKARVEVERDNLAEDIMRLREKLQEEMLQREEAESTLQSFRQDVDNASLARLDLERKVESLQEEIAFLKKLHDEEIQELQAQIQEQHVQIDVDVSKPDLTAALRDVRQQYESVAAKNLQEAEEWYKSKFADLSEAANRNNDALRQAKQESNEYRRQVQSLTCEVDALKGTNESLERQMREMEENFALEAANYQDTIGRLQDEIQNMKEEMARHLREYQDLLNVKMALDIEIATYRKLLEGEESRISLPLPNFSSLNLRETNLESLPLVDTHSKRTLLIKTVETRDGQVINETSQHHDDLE
Chain of purified hamster vimentin (P02544 whole entry): as above

For `CC1=C(CO)C(=O)O[C@@H]([C@@H](C)[C@H]2CC[C@H]3[C@@H]4[C@@H]5O[C@@H]5[C@@]5(O)CC=CC(=O)[C@]5(C)[C@H]4CC[C@]23C)C1` [12-D WS], the “in vitro binding to vimentin” value on soluble hamster vimentin is recorded as “lack of in vitro binding activity”. The “effect on vimentin polymerization” value in experiment [1] was “does not disrupt vimentin polymerization”.

As to `CC1=C(CO)C(=O)O[C@@H]([C@@H](C)[C@H]2CC[C@H]3[C@@H]4C[C@H]5O[C@]56[C@@H](O)C=CC(=O)[C@]6(C)[C@H]4CC[C@]23C)C1` [WFA, Withaferin A], at bovine 20S proteasome (10 μM), the “inhibition of the 20S proteasome's major catalytic function” value is reported as “minimally inhibits”. The “Kobs/[I], efficiency of inactivation” value at bovine 20S proteasome (WFA 0.5-10 μM, epoxomicin 10-75 nM) turned out to be 340±80 M^−1S^−1. Besides, in experiment [2], the “rate of apoptosis, wild-type cells versus vimentin-deficient cells” value is reported as 7 fold. The inhibition of neovascularization in experiment [3] (vimentin-null mice, n=10, P=0.005) is given as 29%; in experiment [3] (wild-type mice, n=8, P=0.002), 73%. Besides, the “effect on vimentin polymerization” value in experiment [1] is “produces extensive filamentous aggregates”. In addition, the “concentration giving dose-dependent increases in vimentin cleavage products” value in the experiment on vimentin in HUVECs (detectable by 2 hours) is recorded as “above 2 μM”. The “levels of polyubiquitinated proteins” value in experiment [4] is recorded as “increases levels of polyubiquitinated proteins”. In addition, the vimentin filament phenotype entry with BAECs is reported as “condensation of vimentin filaments around the perinuclear region”. For the same compound, the “covalent modification of cysteine residue at position 327” value in experiment [5] was “uniquely modified by WFA”.

For `CC1=C(COC(=O)CNC(=O)CCCCCNC(=O)CCCCCNC(=O)CCCCC2SCC3NC(=O)NC32)C(=O)OC([C@@H](C)C2CCC3C4C[C@H]5O[C@]56C(O)C=CC(=O)[C@]6(C)C4CC[C@@]32C)C1` (stereo partly drawn) [WFA-B, WFA-Gly-LC-LC-biotin], the “in vitro binding to vimentin” value at soluble hamster vimentin was “bound by WFA-B in a WFA-competitive manner”. Further, in the experiment on vimentin in HUVECs (data not shown), the “effect on full-length vimentin isoforms (two-dimensional western blot)” value is reported as “causes several full-length (˜53-56 kDa) isoforms of vimentin to disappear”. For the same compound, in [6], the “binding to 56 kDa protein in cells” value was “binds to the 56 kDa protein in HUVECs”.
